Earlier results in paper PMC10720383, “Acetylcholinesterase Inhibition in Rats and Humans Following Acute Fenitrothion Exposure Predicted by Physiologically Based Kinetic Modeling-Facilitated Quantitative In Vitro to In Vivo Extrapolation” (Environmental Science & Technology, 2023).
Read-outs that look alike come from different tables or passages of the source.

Columns and labels:
[1] = rats; diazinon constant used for FNT; cited from earlier work
[2] = humans; diazinon constant used for FNT; cited from earlier work
[3] = assumed default for neutral and acidic compounds, no experimental data; cited from earlier work
[4] = not clear if experimental or in silico, cited from earlier work

SMILES	absorption rate constant from intestine to liver (kaI) [1]	absorption rate constant from stomach to liver (kaS) [1]	transfer rate constant from stomach to intestine (ksI) [1]	absorption rate constant from intestine to liver (kaI) [2]	absorption rate constant from stomach to liver (kaS) [2]	transfer rate constant from stomach to intestine (ksI) [2]	blood plasma ratio (BPr) [3]	LogP, reported data ([4]; ref OECD 1994)	pKa, reported data ([4]; ref Shahpoury et al. 2018)
CCOP(=S)(OCC)Oc1cc(C)nc(C(C)C)n1 [diazinon]	0.59 h⁻¹	0.1 h⁻¹	0.48 h⁻¹	0.59 h⁻¹	0.32 h⁻¹	0.48 h⁻¹	–	–	–
Cc1cc(O)ccc1[N+](=O)[O-] [MNP, 3-methyl-4-nitrophenol]	–	–	–	–	–	–	0.55	2.12	7.33
